Data reported in US5859042A, “Five membered heterocyclic compounds” (Ono Pharmaceutical Co., Ltd., priority 1997, dated 1999).

Molecular target: T1, 5α-reductase (Homo sapiens, UniProt P31213)
T1 construct: Frozen human prostates were thawed on ice and minced with scissors into small pieces; from tissue; host or cells: human prostate (frozen), washed 140,000×g membrane pellet
T1 sequence (P31213 1-254): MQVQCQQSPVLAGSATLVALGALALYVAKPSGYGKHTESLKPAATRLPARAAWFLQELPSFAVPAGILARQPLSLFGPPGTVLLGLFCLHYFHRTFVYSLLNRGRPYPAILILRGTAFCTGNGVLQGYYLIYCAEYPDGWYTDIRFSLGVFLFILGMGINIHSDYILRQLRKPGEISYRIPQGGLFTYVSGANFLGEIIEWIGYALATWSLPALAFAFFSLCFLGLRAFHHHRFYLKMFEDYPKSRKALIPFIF
Assay: inhibitory activity on 5α-reductase from human prostates (conversion of 14C-testosterone to DHT)
Format: biochemical
Conditions: human prostatic 5α-reductase, pH 5.0, 1 μM 14C-testosterone, 1 mM NADPH, 30 min at 37° C.
Experimental: (1) Preparation of 5α-reductase from human prostates
Frozen human prostates were thawed on ice and minced with scissors into small pieces (~1 mm^3). The minced tissue was homogenized in 3 tissue volumes of ice cold medium A (20 mM potassium phosphate, pH 6.5, containing 0.32M sucrose, 1 mM dithiothreitol, 50 μM NADPH, 1 mM EDTA), first with a Brinkmann Polytron and then with a Dounce homogenizer. The homogenate was filtered through gauze and the filtrate was centrifuged at 140,000×g at 4° C. for 60 min. The resulting pellet was washed with 3 tissue volumes of medium A. The washed pellet was suspended (5-10 mg protein/ml) in 20 mM potassium phosphate, pH 6.5, containing 20% glycerol, 50 μM NADPH and 1 mM dithiothreitol. An appropriate aliquot of this suspension was used as the source of 5α-reductase.
5α-reductase activity was determined by following the conversion of testosterone to 5α-dihydrotestosterone (DHT). In brief, buffer (100 mM Tris-citrate, pH5.0), 1 mM NADPH and human prostatic 5α-reductase(0.4-1 mg protein) were placed in test tubes. After addition of test compounds (dissolved in 5 μl in DMSO or EtOH) or solvents to the tubes, the solutions were preincubated at room temperature for 10 min. The reactions were initiated by addition of 1 μM ^14 C-testosterone to a final volume of 0.5 ml. Following 30 min incubation at 37° C., the reactions were stopped by addition of 5 ml dichloromethane. After centrifugation at 1000 rpm for 5 min, the organic phase (bottom) was collected and the volume reduced to ~100 μl in a 42° C. water bath. The solutions were applied to silica plates and the plates were developed in chloroform/ethyl acetate (3:1) at room temperature. The radioactivity profiles were determined by a BIOSCAN imaging scanner. The silica in sections identified by BIOSCAN and counted in a scintillation counter. Enzyme activity was calculated from the percent of recovered radio label converted to the product DHT.

Structure (SMILES)	IC50 (Table 1) [nM]	IC50 (Table 2) [nM]
Cn1c(CC(=O)O)ccc1C(=O)c1ccc(-c2ccc(F)cc2)cc1 [Example 3(62)]	41	
Cn1c(CC(=O)O)ccc1C(=O)c1ccc(OCc2ccccc2)cc1 [Example 3(8)]	24	
CCc1ccc(-c2ccc(C(=O)c3ccc(CC(=O)O)n3C)cc2)cc1 [Example 2]	24	
Cn1c(CC(=O)O)ccc1C(=O)c1ccc(-n2cccc2)cc1 [Example 3(50)]	160	
Cc1ccc(C(=O)c2ccc(CC(=O)O)n2C)cc1 [methyl]		8000
Cn1c(CC(=O)O)ccc1C(=O)c1ccc(C2CCCCC2)cc1 [Example 3(1)]	20	
Cn1c(CC(=O)O)ccc1C(=O)c1ccc(-c2cccs2)cc1 [Example 3(54)]	23	
Cn1c(CC(=O)O)ccc1C(=O)CCCCc1ccccc1 [Example 3(22)]	840	
CCCCCCOc1ccc(C(=O)c2ccc(CC(=O)O)n2C)cc1 [hexyloxy]		170
Cn1c(CC(=O)O)ccc1C(=O)c1ccc(/C=C/c2ccccc2)cc1 [Example 3(47)]	56	
Cn1c(CC(=O)O)ccc1C(=O)c1ccc2c(c1)C(=O)c1ccccc1-2 [Example 3(20)]	130	
O=C(O)Cc1ccc(C(=O)c2ccc(-c3ccccc3)cc2)s1 [Example 3(18)]	450	
Cc1cc(OCc2ccccc2)ccc1C(=O)c1ccc(CC(=O)O)n1C [Example 3(16)]	170	
CC(C)Cc1ccc(C(=O)c2ccc(CC(=O)O)n2C)cc1 [isobutyl]		74
Cn1c(CC(=O)O)ccc1C(=O)c1ccc(-c2ccc(Br)s2)cc1 [Example 3(55)]	24	
Cn1c(CC(=O)O)ccc1C(=O)c1ccc(C(=O)c2ccccc2)cc1 [Example 3(5)]	210	
Cn1c(CC(=O)O)ccc1C(=O)c1ccc(I)cc1 [iodo]		440
Cn1c(CC(=O)O)ccc1C(=O)c1ccc(C(C)(C)C)cc1 [t-butyl]		400
Cn1c(CC(=O)O)ccc1C(=O)c1ccc(-c2cc(Cl)cc(Cl)c2)cc1 [Example 3(82)]	630	
Cn1c(CC(=O)O)ccc1C(=O)C1CCC(c2ccccc2)CC1 (stereo not drawn) [Example 3(77)]	250	
Cn1c(CC(=O)O)ccc1C(=O)c1ccc(CSc2ccccc2)cc1 [Example 3(41)]	98	
Cc1cc(C(=O)c2ccc(CC(=O)O)n2C)ccc1-c1ccccc1 [Example 3(83)]	92	
Cn1c(CC(=O)O)ccc1C(=O)c1ccc(-c2ccccc2)cc1 [Example 3(2)]	19	
Cn1c(C(=O)O)ccc1C(=O)c1ccc(-c2ccccc2)cc1 [Example 3(70)]	170	
